According to BindingDB's records for doi:10.1002/(SICI)1098-2396(200002)35:2<79::AID-SYN1>3.0.CO;2-X (Institut De Recherches Servier, 2000):
Where “and” joins values, the source holds several entries; their conditions need not be identical. Equal values may be shown once.

What was measured:
[1] = target: 5-hydroxytryptamine receptor 1B (Cavia porcellus, UniProt O08892)
[2] = target: T1, 5-hydroxytryptamine receptor 2C (Homo sapiens, UniProt P28335)
T1 sequence (P28335 whole entry): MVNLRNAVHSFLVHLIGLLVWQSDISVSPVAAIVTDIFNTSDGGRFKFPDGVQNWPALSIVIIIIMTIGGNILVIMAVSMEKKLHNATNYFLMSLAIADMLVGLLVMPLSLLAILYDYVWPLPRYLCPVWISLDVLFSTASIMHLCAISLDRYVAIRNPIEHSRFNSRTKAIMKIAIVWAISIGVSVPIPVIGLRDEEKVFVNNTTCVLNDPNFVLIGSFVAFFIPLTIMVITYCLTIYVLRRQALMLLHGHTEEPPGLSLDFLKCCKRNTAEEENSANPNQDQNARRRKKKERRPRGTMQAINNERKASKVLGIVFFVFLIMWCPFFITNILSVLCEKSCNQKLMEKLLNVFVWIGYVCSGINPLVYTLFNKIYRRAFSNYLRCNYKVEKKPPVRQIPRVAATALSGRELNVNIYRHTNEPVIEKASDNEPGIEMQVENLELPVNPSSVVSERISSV

[3] = target: T2, 5-hydroxytryptamine receptor 1A (Rattus norvegicus, UniProt P19327)
T2 sequence (P19327 whole entry): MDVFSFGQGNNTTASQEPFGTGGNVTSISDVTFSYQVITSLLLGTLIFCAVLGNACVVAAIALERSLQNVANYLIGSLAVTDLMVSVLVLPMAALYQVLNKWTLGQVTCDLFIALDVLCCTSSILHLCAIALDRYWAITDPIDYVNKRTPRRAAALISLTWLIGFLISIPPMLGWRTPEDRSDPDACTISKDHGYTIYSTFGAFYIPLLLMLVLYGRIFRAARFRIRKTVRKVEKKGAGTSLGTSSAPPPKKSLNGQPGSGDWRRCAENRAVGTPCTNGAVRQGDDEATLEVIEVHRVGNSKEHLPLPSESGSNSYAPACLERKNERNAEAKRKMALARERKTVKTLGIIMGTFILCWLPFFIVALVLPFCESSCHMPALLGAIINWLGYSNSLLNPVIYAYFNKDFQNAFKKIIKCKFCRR

[4] = target: 5-hydroxytryptamine receptor 2A (Rattus norvegicus, UniProt P14842)
Chain of 5-hydroxytryptamine receptor 2A (P14842 whole entry): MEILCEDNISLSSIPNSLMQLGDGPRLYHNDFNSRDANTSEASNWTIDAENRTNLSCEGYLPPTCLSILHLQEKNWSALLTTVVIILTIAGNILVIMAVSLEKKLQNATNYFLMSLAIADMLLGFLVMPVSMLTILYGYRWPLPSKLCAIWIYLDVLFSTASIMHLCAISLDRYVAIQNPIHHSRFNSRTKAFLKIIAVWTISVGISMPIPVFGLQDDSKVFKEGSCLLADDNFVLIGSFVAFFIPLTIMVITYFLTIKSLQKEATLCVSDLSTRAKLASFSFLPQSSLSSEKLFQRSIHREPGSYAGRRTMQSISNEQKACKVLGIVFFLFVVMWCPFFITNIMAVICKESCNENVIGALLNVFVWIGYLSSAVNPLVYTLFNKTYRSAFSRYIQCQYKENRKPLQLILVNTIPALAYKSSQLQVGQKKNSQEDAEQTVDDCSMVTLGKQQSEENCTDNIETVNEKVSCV

[5] = target: T3, Alpha-2A adrenergic receptor [16-465] (Rattus norvegicus, UniProt P22909)
T3 construct: 16-465
T3 sequence (P22909 whole entry): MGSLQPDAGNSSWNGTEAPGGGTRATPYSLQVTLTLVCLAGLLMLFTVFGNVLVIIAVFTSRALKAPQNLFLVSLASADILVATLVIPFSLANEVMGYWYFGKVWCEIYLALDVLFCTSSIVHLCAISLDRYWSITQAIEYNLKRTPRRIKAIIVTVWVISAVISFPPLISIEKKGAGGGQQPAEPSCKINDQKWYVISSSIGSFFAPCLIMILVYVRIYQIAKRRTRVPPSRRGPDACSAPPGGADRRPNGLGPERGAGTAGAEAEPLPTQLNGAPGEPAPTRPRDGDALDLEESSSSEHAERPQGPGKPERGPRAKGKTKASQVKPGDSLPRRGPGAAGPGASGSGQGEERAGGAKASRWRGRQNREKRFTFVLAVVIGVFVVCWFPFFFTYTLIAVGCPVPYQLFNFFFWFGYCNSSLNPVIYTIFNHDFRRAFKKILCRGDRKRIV

[6] = target: T4, Alpha-2C adrenergic receptor (Homo sapiens, UniProt P18825)
T4 sequence (P18825 whole entry): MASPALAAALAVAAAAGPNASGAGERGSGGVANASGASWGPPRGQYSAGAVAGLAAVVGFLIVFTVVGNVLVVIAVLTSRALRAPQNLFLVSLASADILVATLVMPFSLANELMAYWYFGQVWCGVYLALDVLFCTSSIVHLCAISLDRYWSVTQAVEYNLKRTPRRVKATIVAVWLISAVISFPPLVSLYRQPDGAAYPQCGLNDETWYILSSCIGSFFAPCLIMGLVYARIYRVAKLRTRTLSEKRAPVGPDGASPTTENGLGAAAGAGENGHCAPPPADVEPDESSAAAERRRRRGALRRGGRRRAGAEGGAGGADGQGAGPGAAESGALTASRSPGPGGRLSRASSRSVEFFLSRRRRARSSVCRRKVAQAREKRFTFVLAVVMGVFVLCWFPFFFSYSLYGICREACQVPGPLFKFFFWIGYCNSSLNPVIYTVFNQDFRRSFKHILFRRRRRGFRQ

[7] = target: D(2) dopamine receptor (Rattus norvegicus, UniProt P61169)
Chain of D(2) dopamine receptor (P61169 whole entry): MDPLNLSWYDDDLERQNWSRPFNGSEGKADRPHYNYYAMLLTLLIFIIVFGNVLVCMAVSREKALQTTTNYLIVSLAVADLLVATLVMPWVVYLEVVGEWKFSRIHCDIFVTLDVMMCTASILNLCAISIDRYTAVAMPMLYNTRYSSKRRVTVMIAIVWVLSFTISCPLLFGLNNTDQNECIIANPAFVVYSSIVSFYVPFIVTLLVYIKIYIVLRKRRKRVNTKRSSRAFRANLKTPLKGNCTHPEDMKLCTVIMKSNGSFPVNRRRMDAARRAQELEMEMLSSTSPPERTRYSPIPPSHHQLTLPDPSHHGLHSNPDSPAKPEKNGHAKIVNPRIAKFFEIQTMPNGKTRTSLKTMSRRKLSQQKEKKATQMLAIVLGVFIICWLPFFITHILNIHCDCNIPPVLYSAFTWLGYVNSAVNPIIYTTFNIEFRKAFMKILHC

[8] = target: T5, Alpha-2A adrenergic receptor (Homo sapiens, UniProt P08913)
T5 sequence (P08913 whole entry): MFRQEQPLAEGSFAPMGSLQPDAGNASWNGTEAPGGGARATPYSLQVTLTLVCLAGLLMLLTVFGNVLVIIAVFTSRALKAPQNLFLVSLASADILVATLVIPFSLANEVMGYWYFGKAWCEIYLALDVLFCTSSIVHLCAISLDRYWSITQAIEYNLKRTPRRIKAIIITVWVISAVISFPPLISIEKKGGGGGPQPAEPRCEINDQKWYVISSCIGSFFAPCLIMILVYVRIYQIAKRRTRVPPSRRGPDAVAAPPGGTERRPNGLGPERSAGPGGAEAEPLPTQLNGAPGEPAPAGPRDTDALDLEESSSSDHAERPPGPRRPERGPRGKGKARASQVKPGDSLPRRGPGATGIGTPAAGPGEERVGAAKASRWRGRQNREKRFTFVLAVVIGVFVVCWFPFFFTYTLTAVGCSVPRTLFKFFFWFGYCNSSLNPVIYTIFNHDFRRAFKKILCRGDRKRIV

Chain of 5-hydroxytryptamine receptor 1B (O08892 whole entry): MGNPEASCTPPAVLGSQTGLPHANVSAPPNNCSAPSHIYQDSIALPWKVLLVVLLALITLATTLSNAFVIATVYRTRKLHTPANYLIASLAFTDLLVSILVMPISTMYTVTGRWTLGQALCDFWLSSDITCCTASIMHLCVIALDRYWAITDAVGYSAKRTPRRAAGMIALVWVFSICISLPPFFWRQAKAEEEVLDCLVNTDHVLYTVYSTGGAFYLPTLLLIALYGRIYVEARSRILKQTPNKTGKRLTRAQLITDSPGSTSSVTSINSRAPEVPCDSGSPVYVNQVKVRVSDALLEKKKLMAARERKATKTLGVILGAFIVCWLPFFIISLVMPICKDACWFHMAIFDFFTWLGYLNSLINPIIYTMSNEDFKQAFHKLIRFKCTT

## Fc1cccc2c1OC1CNCC1O2 (stereo not drawn) [CAS_105182-45-4]
[1]
  Ki: 1000 nM
[2]
  Ki: 1000 nM
[3]
  Ki: 631 nM
[4]
  Ki: 1000 nM
[5]
  Ki: 1.25 nM
[6]
  Ki: 1.58 nM
[7]
  Ki: 3160 nM
[8]
  Ki: 7.94 nM and 6.3 nM
